Experimental data: patent US20060210479A1 (Dow Global Technologies Inc., priority 2004, published 2006)

Key:
[1] = tested on: PZ-HPV-7 normal cell line; test: Chelate permeability: fluorescence of cytoplasm and membrane fractions; format: cell-based; conditions: PZ-HVP-7; 1 mM chelate, 2 h; Table 4
T84 cell line = test: as above; format: cell-based, human; conditions: 1 mM chelate, 2 h
[2] = tested on: cancer cells (LNCaP, Caco-2, T84); test: Chelate permeability and specificity, cancer cells versus normal cells (summary); format: cell-based, human; conditions: for permeability to cell membranes: cancer cells
LNCaP cell line = test: Chelate permeability: fluorescence of cytoplasm and membrane fractions; format: cell-based, human; conditions: 1 mM chelate, 2 h
RBL-2H3 cell line = test: as above; format: cell-based, rat; conditions: 1 mM chelate, 2 h, Table 4
Protocol: Tb-PCTMB (Tb(III) 3,6,9-tris(methylene phosphonic acid n-butyl ester)-3,6,9,15-tetraazabicyclo[9.3.1]pentadeca-1(15),11,13-triene) was tested for permeability to abnormal and disease-state cells.
RBL-2H3 is a rat basophilic leukemia cell line. These cells were grown in Iscove's Medium supplemented with 2 mM L-glutamnine, penicillin/streptomycin (100 IU/mL, 100 μg/mL) and 10% FBS. Cells were maintained at 5% CO2 and 95% humidity. PZ-HPV-7 cell line was derived from epithelial cells cultured from normal prostate tissue. They were grown in Keratinocyte-Serum Free Medium with human recombinant EGF and bovine pituitary extract supplemented with 50 μg/mL gentamicin and penicillin/streptomycin (100 IU/mL, 100 μg/mL). All media and supplements were purchased from Gibco BRL (Grand Island, N.Y., USA). All cell lines were obtained from ATCC and were maintained at 37° C., 5% CO2 and 95% humidity.
Cells were grown to confluence in T-150 flasks (about 2×10^6 cells). […] Cells were then removed from the flask by manual scraping. Cells were transferred to a 50-mL conical tube and centrifuged (400×g) for 5 minutes and the test material removed.
Cells were grown as described herein (Example 1). Cells were grown to confluence in T-150 flask (about 2×10^6 cells). […] Cells were then removed from the flask by manual scraping. Cells were transferred to a 50-mL conical tube and centrifuged (400×g) for 5 minutes and the test material removed.
Furthermore, one analogue, QCTMP (FIG. 26), having lesser lipophilic character (a free phosphonic acid moiety) was evaluated. […] In this study, the cytoplasm and membrane fractions were extracted by Mem-PER Eukaryotic Membrane Protein Extraction Reagent Kit as described by the manufacturers (Pierce Biotechnology, Rockford, Ill.) and analyzed by a Fluor-S Multilmager.

[3] = tested on: HEK293 cells, normal (non-induced); test: Permeability of chelates to HEK293 cells, fluorescence of fractions; format: cell-based, human; conditions: for Fluorescence/mg Cytoplasm / Fluorescence/mg Membrane: HEK293 Normal, 1 mM chelate, 2 hours; for differential fluorescence, cytoplasm versus membrane fractions: normal HEK293 cells
Protocol: (§1) The human kidney transformed HEK293 cells (obtained from the ATCC) were grown in Eagle's Minimum Essential Medium (EMEM) supplemented with 10% (v/v) heat-inactivated fetal bovine serum, sodium pyruvate, nonessential amino acids and antibiotics in a humidified 5% CO2 atmosphere at 37° C. Medium and supplements were purchased from Gibco bRL (Grand Island, N.Y.). Etoposide was obtained from Sigma (St. Louis, Mo.) and prepared as 20 mM solution in dimethyl sulfoxide (DMSO). For treatments, etoposide was applied to the HEK293 cultures at 1:1000 dilution (final concentration of 20 μM) after cell became 75% confluent. As a control, cells were fed with medium containing 0.1% DMSO in the absence of etoposide. After treatment with etoposide, cells were incubated in a humidified 5% CO2 at 37° C. for 24 hours. HEK293 cells were collected by removing treatment medium and washed 2 times with 10 mM HEPES buffer. Final cell pellets were resuspended in a small amount of HEPES and stored at 4° C. for further study.
(§2) Cells were grown to confluence in T-150 flasks (about 2×10^6 cells). […] After treatment, the chelate or analogue supernatant was discarded and the cells were rinsed three times at room temperature with 10 mM HEPES. Cells were then removed from the flask by manual scraping. Cells were transferred to a 50-mL conical tube and centrifuged (400×g) for 5 minutes and the test material removed. Remaining cells were rinsed twice with cold 10 mM HEPES. Cells were used in cell binding assays.

Caco-2 cell line = test: Chelate permeability: fluorescence of cytoplasm and membrane fractions; format: cell-based, human; conditions: 1 mM chelate, 2 h
[4] = tested on: etoposide-induced (apoptotic) HEK293 cells; test: Permeability of chelates to apoptotic cells, fluorescence of fractions; format: cell-based, human; conditions: for Fluorescence/mg Cytoplasm / Fluorescence/mg Membrane: HEK293 Apoptotic (etoposide 20 μM, 24 hours), 1 mM chelate, 2 hours; for differential fluorescence, cytoplasm versus membrane fractions: etoposide-induced HEK293 cells
Protocol: as §1, §2

Structure (SMILES)	specificity or selectivity for cancer cells versus normal cells [2]	permeability to cell membranes [2]	Fluorescence/mg Cytoplasm [3]	Fluorescence/mg Membrane [3]	differential fluorescence, cytoplasm versus membrane fractions [3]	Fluorescence/mg Cytoplasm [4]	Fluorescence/mg Membrane [4]	differential fluorescence, cytoplasm versus membrane fractions [4]	Fluorescence/mg Cytoplasm (T84 cell line; Table 1)	Fluorescence/mg Membrane (T84 cell line; Table 1)	Fluorescence/mg Cytoplasm (LNCaP cell line; Table 1)	Fluorescence/mg Membrane (LNCaP cell line; Table 1)	Fluorescence/mg Cytoplasm (Caco-2 cell line; Table 1)	Fluorescence/mg Membrane (Caco-2 cell line; Table 1)	other results
Cc1ccc2nc(CN3CCN(CP(=O)([O-])O)CCN(CP(=O)([O-])O)CCN(CP(=O)([O-])O)CC3)ccc2c1.[Eu+3] [Eu-QCTMP]	did not show any specificity or selectivity	did not appear to be permeable	1732	1738	did not show any significant differential fluorescence	1450	1800	did not show any significant differential fluorescence	–	–	–	–	–	–	Fluorescence/mg Cytoplasm [1]: 2276; Fluorescence/mg Membrane [1]: 2271; Fluorescence/mg Cytoplasm (T84 cell line; Table 4): 2230; Fluorescence/mg Membrane (T84 cell line; Table 4): 2259; Fluorescence/mg Cytoplasm (LNCaP cell line; Table 4): 2287; Fluorescence/mg Membrane (LNCaP cell line; Table 4): 2301; Fluorescence/mg Cytoplasm (RBL-2H3 cell line): 2311; Fluorescence/mg Membrane (RBL-2H3 cell line): 2311; Fluorescence/mg Cytoplasm (Caco-2 cell line; Table 4): 2300; Fluorescence/mg Membrane (Caco-2 cell line; Table 4): 2314
COP(=O)([O-])CN1CCN(CP(=O)([O-])OC)Cc2cccc(n2)CN(CP(=O)([O-])OC)CC1.[Tb+3] [Tb-PCTMM]	did not show any specificity or selectivity	no permeability	682	679	did not show any significant differential fluorescence	656	962	did not show any significant differential fluorescence	328.3	358.7	344.5	379.5	357.7	388.9	–
O=C([O-])CN1CCN(CC(=O)[O-])Cc2cccc(n2)CN(CC(=O)[O-])CC1.[Tb+3] [Tb-PCTA]	did not show any specificity or selectivity	no permeability	686	685	did not show any significant differential fluorescence	652	678	did not show any significant differential fluorescence	333.4	329.1	368.8	362.1	366.3	362.8	–
